What was measured:
Carbonic anhydrase 1 [1] = target: T1, Carbonic anhydrase 1 (Homo sapiens, UniProt P00915); assay: Inhibition of human CA1 by stopped flow CO2 hydrase assay
[2] = target: T2, Vascular endothelial growth factor receptor 2 (Homo sapiens, UniProt P35968); assay: Inhibition of hypoxia induced VEGFR-2 (unknown origin)
Carbonic anhydrase 1 [3] = target: T1, Carbonic anhydrase 1
Description: Inhibition of human CA1 preincubated for 6 hrs by phenol red staining based stopped flow CO2 hydrase assay

[4] = target: T2, Vascular endothelial growth factor receptor 2; assay: Inhibition of VEGFR-2 (unknown origin)
PANC-1 = assay: Cytotoxicity against human PANC-1 cells under hypoxia condition by MTT assay; assay type: functional, cell-based
[5] = Cytotoxicity against African green monkey Vero cells under hypoxic condition by MTT assay; settings: African green monkey (Chlorocebus sabaeus)
Ehrlich [6] = settings: dose 5 mg/kg; route ip; time 14 day
Description: Antitumor activity against mouse EAC cells implanted in Swiss albino mouse assessed as T/C ratio at 5 mg/kg, ip measured on day 5, 10 and 14

Ehrlich [7] = assay: animal or person; settings: Mus musculus, 336 h, read-out: GI

T2 sequence (P35968 whole entry): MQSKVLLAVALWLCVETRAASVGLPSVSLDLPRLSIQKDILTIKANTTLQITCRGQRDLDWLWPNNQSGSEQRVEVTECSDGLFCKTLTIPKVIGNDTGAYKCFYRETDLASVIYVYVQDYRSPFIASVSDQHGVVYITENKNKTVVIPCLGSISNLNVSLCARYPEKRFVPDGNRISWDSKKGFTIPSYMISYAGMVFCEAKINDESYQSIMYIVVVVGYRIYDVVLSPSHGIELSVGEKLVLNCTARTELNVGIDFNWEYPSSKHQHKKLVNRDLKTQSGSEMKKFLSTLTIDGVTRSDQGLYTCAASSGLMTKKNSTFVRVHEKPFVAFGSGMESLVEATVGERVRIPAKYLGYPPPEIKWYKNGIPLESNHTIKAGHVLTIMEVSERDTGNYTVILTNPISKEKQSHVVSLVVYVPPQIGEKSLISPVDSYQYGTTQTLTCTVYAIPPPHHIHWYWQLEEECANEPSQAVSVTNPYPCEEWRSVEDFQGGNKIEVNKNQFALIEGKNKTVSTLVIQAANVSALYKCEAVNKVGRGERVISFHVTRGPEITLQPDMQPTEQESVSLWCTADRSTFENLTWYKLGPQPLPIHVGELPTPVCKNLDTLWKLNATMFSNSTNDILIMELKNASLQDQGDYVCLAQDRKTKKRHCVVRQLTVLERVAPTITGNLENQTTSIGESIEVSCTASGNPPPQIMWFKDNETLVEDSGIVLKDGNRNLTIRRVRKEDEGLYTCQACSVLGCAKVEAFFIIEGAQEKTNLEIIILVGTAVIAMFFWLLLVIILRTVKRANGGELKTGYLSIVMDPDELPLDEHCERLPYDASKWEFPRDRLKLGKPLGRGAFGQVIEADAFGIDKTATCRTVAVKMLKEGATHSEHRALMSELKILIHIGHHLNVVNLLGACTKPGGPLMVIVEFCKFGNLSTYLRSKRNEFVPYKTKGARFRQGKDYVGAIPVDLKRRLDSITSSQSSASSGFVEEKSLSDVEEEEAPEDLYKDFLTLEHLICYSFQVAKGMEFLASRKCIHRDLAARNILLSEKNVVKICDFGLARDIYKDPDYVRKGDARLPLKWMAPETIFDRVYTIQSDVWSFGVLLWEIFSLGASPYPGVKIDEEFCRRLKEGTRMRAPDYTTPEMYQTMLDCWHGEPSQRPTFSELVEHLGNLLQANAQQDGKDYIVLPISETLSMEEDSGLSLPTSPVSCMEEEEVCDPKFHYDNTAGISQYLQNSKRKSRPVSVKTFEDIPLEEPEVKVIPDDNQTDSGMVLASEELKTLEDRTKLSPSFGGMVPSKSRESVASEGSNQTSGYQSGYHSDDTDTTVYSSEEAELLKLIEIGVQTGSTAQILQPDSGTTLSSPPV
T1 sequence (P00915 whole entry): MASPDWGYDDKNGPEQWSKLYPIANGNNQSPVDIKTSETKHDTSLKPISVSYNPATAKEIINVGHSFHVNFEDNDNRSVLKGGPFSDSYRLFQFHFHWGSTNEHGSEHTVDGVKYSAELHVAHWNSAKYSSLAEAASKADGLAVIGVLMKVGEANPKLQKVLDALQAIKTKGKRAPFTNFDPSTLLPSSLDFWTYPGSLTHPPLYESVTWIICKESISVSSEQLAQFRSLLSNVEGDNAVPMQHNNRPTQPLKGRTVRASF

| SMILES | Ki (Carbonic anhydrase 1 [3]) [µM] | also measured |
| --- | --- | --- |
| Cc1nc(-c2cc3ccccc3oc2=O)ccc1C(=O)/C=C/c1cccs1 |  | Ki (Carbonic anhydrase 1 [1]): 1.1 µM |
| CCOc1cccc2cc(/C(C)=N/Nc3nc(-c4ccc(OC)cc4)cs3)c(=O)oc12 | > 100 | IC50 [2]: 0.0348 µM |
| CCOc1cccc2cc(/C(C)=N/Nc3nc(-c4cc5cccc(OCC)c5oc4=O)cs3)c(=O)oc12 | > 100 |  |
| CCOc1cccc2cc(/C(C)=N/Nc3nc(-c4ccccc4)cs3)c(=O)oc12 | > 100 | IC50 [2]: 0.0686 µM |
| CCOc1cccc2cc(/C(C)=N/Nc3nc(-c4ccc(Cl)cc4)cs3)c(=O)oc12 | > 100 |  |
| CCOc1cccc2cc(/C(C)=N/Nc3nc(-c4cc5cc(Br)ccc5oc4=O)cs3)c(=O)oc12 | > 100 |  |
| C/C(=N\NC(=S)Nc1ccc(Br)cc1)c1cc2ccccc2oc1=O |  | IC50 [4]: 0.082 µM |
| CCOc1cccc2cc(/C(C)=N/Nc3nc(-c4ccc(C)cc4)cs3)c(=O)oc12 | > 100 |  |
| CCOc1cccc2cc(/C(C)=N/Nc3nc(-c4cc5ccc(OC)cc5oc4=O)cs3)c(=O)oc12 | > 100 |  |
| O=C(CN1C(=O)S/C(=C\c2cccs2)C1=O)c1cc2ccccc2oc1=O | > 100 |  |
| CCOc1cccc2cc(/C(C)=N/Nc3nc(-c4ccc([N+](=O)[O-])cc4)cs3)c(=O)oc12 | > 100 |  |
| CCOc1cccc2cc(/C(C)=N/Nc3nc(-c4ccc(Br)cc4)cs3)c(=O)oc12 | > 100 |  |
| CCOc1cccc2cc(/C(C)=N/Nc3nc(-c4ccc(F)cc4)cs3)c(=O)oc12 | > 100 | IC50 [2]: 0.0321 µM |
| COc1cccc2c1C(=O)c1c(O)c3c(c(O)c1C2=O)C[C@@](O)(C(=O)CO)C[C@@H]3O[C@H]1C[C@H](N)[C@H](O)[C@H](C)O1 [DOXORUBICIN] |  | IC50 (PANC-1): 6.9 µM; IC50 [5]: 8.7 µM; T/C (Ehrlich [6]): 40.89; inhibition in vivo at 5 mg/kg (Ehrlich [7]): 67% |
